Results from ChEMBL document CHEMBL1201862, “PubChem BioAssay data set” (2004).
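96-well plates; 48 h exposure; 5 concentrations. Endpoints by linear interpolation between flanking doses. Not reached: highest tested concentration assigned. GI50: concentration for 50% inhibition of growth.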 Calls of active or inactive are those of the source. Rule as the data show it: active = GI50 up to about 1.1 µM and inactive = higher.

Assays:
Experiment in all cases: growth of human tumour cells (NCI), 48 h
Malme-3M = tested on: Malme-3M
T47D = tested on: T47D
RPMI-8226 = tested on: RPMI-8226
786-0 = tested on: 786-0
SK-MEL-5 = tested on: SK-MEL-5
SF-268 = tested on: SF-268
HT-29 = tested on: HT-29
SNB-19 = tested on: SNB-19
NCI-H460 = tested on: NCI-H460
SF-295 = tested on: SF-295
SW-620 = tested on: SW-620
MOLT-4 = tested on: MOLT-4
CCRF-CEM = tested on: CCRF-CEM
NCI/ADR-RES = tested on: NCI/ADR-RES
MDA-N = tested on: MDA-N
HL-60 = tested on: HL-60
SNB-75 = tested on: SNB-75
ACHN = tested on: ACHN
HOP-92 = tested on: HOP-92
MDA-MB-435 = tested on: MDA-MB-435

Measured: GI50

CC(C)OC(=O)C1(C(C)C)CCc2ccc(C(=O)CCC(=O)O)cc21 (stereo not drawn)
inactive: Malme-3M > 100 µM | T47D > 100 µM | RPMI-8226 > 100 µM | 786-0 > 100 µM | SK-MEL-5 > 100 µM | SF-268 > 100 µM | HT-29 > 100 µM | SNB-19 > 100 µM | NCI-H460 > 100 µM | SF-295 > 100 µM | SW-620 > 100 µM | MOLT-4 > 100 µM | CCRF-CEM > 100 µM | NCI/ADR-RES > 100 µM | MDA-N > 100 µM | HL-60 > 100 µM | SNB-75 > 100 µM | ACHN > 100 µM

O=C(CCCCCCCCC(=O)N1C(=O)CC(=O)N(c2cccc(Cl)c2)C1=S)N1C(=O)CC(=O)N(c2cccc(Cl)c2)C1=S
inactive: Malme-3M 66.1 µM | T47D 37 µM | RPMI-8226 27.2 µM | HOP-92 20.5 µM | 786-0 45.6 µM | SK-MEL-5 28.7 µM | SF-268 57.4 µM | HT-29 36.9 µM | SNB-19 33.7 µM | NCI-H460 45.9 µM | SF-295 28.1 µM | MOLT-4 20 µM | CCRF-CEM 32.7 µM | MDA-MB-435 59.8 µM | NCI/ADR-RES 27.2 µM | MDA-N 41.2 µM | SNB-75 33.3 µM | ACHN 46.2 µM

Cc1cc2nn(C3CCCO3)nc2cc1C (stereo not drawn)
inactive: Malme-3M > 100 µM | T47D > 100 µM | 786-0 > 100 µM | SK-MEL-5 > 100 µM | SF-268 > 100 µM | HT-29 > 100 µM | NCI-H460 > 100 µM | SF-295 > 100 µM | MOLT-4 > 100 µM | CCRF-CEM > 100 µM | MDA-MB-435 > 100 µM | NCI/ADR-RES > 100 µM | MDA-N > 100 µM | SNB-75 69.3 µM

CCOC(=O)C(C#N)C1=CC(=O)C(=O)c2ccc(O)cc21 (stereo not drawn)
inactive: Malme-3M 47 µM | T47D 79.4 µM | RPMI-8226 > 100 µM | 786-0 > 100 µM | SK-MEL-5 42.7 µM | SF-268 > 100 µM | HT-29 > 100 µM | SNB-19 > 100 µM | NCI-H460 > 100 µM | SF-295 90.6 µM | SW-620 77.4 µM | MOLT-4 > 100 µM | CCRF-CEM > 100 µM | MDA-MB-435 21.1 µM | NCI/ADR-RES > 100 µM | MDA-N 18.5 µM | HL-60 > 100 µM | SNB-75 51.1 µM | ACHN 42.3 µM

CC1=C(C#N)C2C(=C(C)N1)C(N)=Nc1ccccc12 (stereo not drawn)
inactive: Malme-3M 37.8 µM | T47D 31.4 µM | HOP-92 12.1 µM | 786-0 43 µM | SK-MEL-5 30 µM | SF-268 39.4 µM | HT-29 38.3 µM | SNB-19 37.1 µM | NCI-H460 44.4 µM | SF-295 30.6 µM | SW-620 48.1 µM | MOLT-4 33.2 µM | CCRF-CEM 32.5 µM | NCI/ADR-RES > 100 µM | MDA-N 43.2 µM | HL-60 29.3 µM | SNB-75 8.17 µM | ACHN 47.6 µM

C[C@H]1S[C@H](c2c(Cl)cccc2Cl)N2Cc3ccccc3N=C12
inactive: T47D 12.4 µM | RPMI-8226 16 µM | HOP-92 17.9 µM | 786-0 8.49 µM | SK-MEL-5 10.2 µM | SF-268 14.2 µM | SNB-19 10.3 µM | NCI-H460 11.3 µM | SF-295 9.16 µM | SW-620 25.1 µM | MOLT-4 8.83 µM | CCRF-CEM 21 µM | MDA-MB-435 14.3 µM | MDA-N 21 µM | HL-60 5.9 µM | SNB-75 14.1 µM | ACHN 12.4 µM

CC(C)(NC1=NCCO1)c1ccccc1
inactive: Malme-3M > 100 µM | T47D > 100 µM | RPMI-8226 > 100 µM | HOP-92 > 100 µM | 786-0 > 100 µM | SK-MEL-5 > 100 µM | SF-268 > 100 µM | HT-29 > 100 µM | SNB-19 43.4 µM | NCI-H460 > 100 µM | SF-295 > 100 µM | SW-620 > 100 µM | MOLT-4 > 100 µM | MDA-MB-435 > 100 µM | NCI/ADR-RES > 100 µM | MDA-N > 100 µM | SNB-75 > 100 µM | ACHN > 100 µM

FC(F)(F)c1cccc(COCCN2CCN(Cc3cccc(C(F)(F)F)c3)CC2)c1
inactive: Malme-3M 8.09 µM | T47D 16.3 µM | 786-0 15.3 µM | SK-MEL-5 15.8 µM | SF-268 15.3 µM | HT-29 21.7 µM | SNB-19 15.6 µM | NCI-H460 16.3 µM | SF-295 19.7 µM | SW-620 13.1 µM | MOLT-4 7.91 µM | CCRF-CEM 14.1 µM | NCI/ADR-RES 18.6 µM | MDA-N 15.9 µM | HL-60 36.6 µM | SNB-75 13.5 µM | ACHN 15.7 µM

CC(=O)OC/C=C(/CCl)CCC(Br)C(C)(C)Br.CC(=O)OC/C=C(\CCl)CCC(Br)C(C)(C)Br (stereo not drawn)
inactive: Malme-3M > 10 µM | T47D > 10 µM | RPMI-8226 > 10 µM | 786-0 > 10 µM | SK-MEL-5 > 10 µM | SF-268 > 10 µM | HT-29 > 10 µM | SNB-19 > 10 µM | NCI-H460 > 10 µM | SF-295 > 10 µM | SW-620 > 10 µM | MOLT-4 > 10 µM | CCRF-CEM > 10 µM | MDA-MB-435 > 10 µM | NCI/ADR-RES > 10 µM | MDA-N > 10 µM | HL-60 > 10 µM | SNB-75 > 10 µM | ACHN > 10 µM

Cc1c(C(=O)O)n2c(S)nnc2c2ccccc12
inactive: T47D > 100 µM | RPMI-8226 > 100 µM | HOP-92 > 100 µM | 786-0 > 100 µM | SK-MEL-5 > 100 µM | SF-268 > 100 µM | HT-29 > 100 µM | SNB-19 > 100 µM | NCI-H460 > 100 µM | SF-295 > 100 µM | SW-620 > 100 µM | MOLT-4 > 100 µM | CCRF-CEM > 100 µM | MDA-MB-435 > 100 µM | NCI/ADR-RES > 100 µM | MDA-N > 100 µM | HL-60 > 100 µM | ACHN > 100 µM

O=c1cc(CO)n(CCc2c[nH]c3ccccc23)cc1O
inactive: Malme-3M 13.4 µM | T47D 24.5 µM | RPMI-8226 > 100 µM | HOP-92 30.6 µM | 786-0 34.8 µM | SK-MEL-5 47.8 µM | SF-268 20.7 µM | HT-29 34 µM | SNB-19 37.1 µM | NCI-H460 33.3 µM | SF-295 > 100 µM | SW-620 > 100 µM | MOLT-4 6.21 µM | CCRF-CEM 29.5 µM | MDA-MB-435 > 100 µM | NCI/ADR-RES 32.3 µM | MDA-N 21.3 µM | ACHN 66.5 µM

CN1CC2=C(N=C(S)NC2c2ccc(Cl)cc2)/C(=C/c2ccc(Cl)cc2)C1 (stereo not drawn)
inactive: Malme-3M 14.5 µM | T47D 15 µM | RPMI-8226 25.8 µM | 786-0 24.4 µM | SK-MEL-5 13.3 µM | SF-268 23.9 µM | HT-29 16.2 µM | SNB-19 > 10 µM | NCI-H460 14.8 µM | SF-295 17.6 µM | SW-620 14.6 µM | MOLT-4 5.32 µM | CCRF-CEM 13.5 µM | MDA-MB-435 14.9 µM | NCI/ADR-RES 17.2 µM | MDA-N 19.7 µM | HL-60 14.6 µM | SNB-75 15.1 µM | ACHN 23 µM

CC(NC1=NCCO1)c1cccs1 (stereo not drawn)
inactive: Malme-3M 21.4 µM | T47D 36.4 µM | RPMI-8226 23.7 µM | HOP-92 12.6 µM | 786-0 17.1 µM | SK-MEL-5 31.8 µM | SF-268 30.4 µM | HT-29 19.1 µM | SNB-19 20.5 µM | NCI-H460 28.8 µM | SF-295 16.5 µM | SW-620 36.5 µM | MOLT-4 22.1 µM | CCRF-CEM 20 µM | MDA-MB-435 19.7 µM | NCI/ADR-RES > 100 µM | HL-60 17.9 µM | SNB-75 37.7 µM | ACHN 74.6 µM

O=C(N/N=C1\CCc2ccccc21)N/N=C1\CCc2ccccc21
inactive: Malme-3M > 100 µM | T47D > 100 µM | RPMI-8226 > 100 µM | 786-0 > 100 µM | SK-MEL-5 > 100 µM | SF-268 > 100 µM | HT-29 > 100 µM | SNB-19 > 100 µM | NCI-H460 > 100 µM | SF-295 > 100 µM | SW-620 > 100 µM | MOLT-4 > 100 µM | CCRF-CEM > 100 µM | MDA-MB-435 > 100 µM | NCI/ADR-RES > 100 µM | MDA-N 11.2 µM | HL-60 > 100 µM | SNB-75 > 100 µM | ACHN > 100 µM

CNC(=O)C1OC(n2cnc3c(NCc4cccc(I)c4)nc(Cl)nc32)C(O)C1O (stereo not drawn)
inactive: Malme-3M 3.64 µM | T47D 15.6 µM | RPMI-8226 18.9 µM | 786-0 18.6 µM | SK-MEL-5 12 µM | SF-268 11.4 µM | SNB-19 12.4 µM | SF-295 18.7 µM | SW-620 14.9 µM | MOLT-4 14.2 µM | CCRF-CEM 16.7 µM | MDA-MB-435 11.3 µM | NCI/ADR-RES 11.7 µM | MDA-N 20.7 µM | HL-60 15.3 µM | ACHN 11.8 µM
active: SNB-75 0.839 µM
